Data on ten compounds can be found in ChEMBL document CHEMBL1201862, “PubChem BioAssay data set” (2004).

Some test systems named below: LOX IMVI; OVCAR-8; SK-MEL-2; HCC 2998; OVCAR-5; SK-MEL-5; 786-0; COLO 205; ACHN; UO-31; NCI/ADR-RES; MOLT-4; MDA-MB-435; EKVX; RPMI-8226; OVCAR-4; CAKI-1; UACC-257; SR; MCF7.
What all share (experiment): DTP human tumour cell line panel, 48 h

Each structure is given as a SMILES string.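 Protocol summary: plate cells (96-well), add compound at 5 concentrations, incubate 48 h, interpolate endpoints linearly. Here, GI50 denotes the concentration required for 50% inhibition of growth.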 Activity calls are given as the source filed them. Rule as the data show it: active = GI50 up to about 1.1 µM and inactive = higher.

One may read the GI50 as the concentration giving 50% growth inhibition. For `COC(=O)/C(C#N)=C(/NCCN)Nc1ccccc1`, the GI50 in the experiment on LOX IMVI, with OVCAR-8, in the experiment with SK-MEL-2, with HCC 2998, in the experiment with OVCAR-5 and in the experiment on SK-MEL-5 was > 100 µM (inactive) throughout. Further, the GI50 in the experiment with 786-0, with COLO 205, in the experiment with ACHN, in the experiment with UO-31, in the experiment with NCI/ADR-RES and in the experiment with MOLT-4 was > 100 µM (inactive) in each case. For the same compound, the GI50 with MDA-MB-435, in the experiment on EKVX, in the experiment on RPMI-8226, in the experiment with OVCAR-4, with CAKI-1 and in the experiment on UACC-257 was > 100 µM (inactive) each time. Besides, the GI50 with SR and in the experiment on MCF7 was > 100 µM (inactive) throughout.
Take `C[C@@H]1C[C@H](O)[C@]2(O)O[C@@H]3C[C@@]4(C=O)[C@@H](CC=C5[C@@H]4CC[C@]4(C)[C@@H](C6=CC(=O)OC6)CC[C@]54O)C[C@H]3O[C@@H]2O1`: the concentration for 50% growth inhibition (GI50) in the experiment with LOX IMVI was 0.0176 µM (active); in the experiment on OVCAR-8 it was < 0.0205 µM (active); with SK-MEL-2, 0.098 µM (active); with HCC 2998 it was 0.0678 µM (active); with OVCAR-5 it was 0.0951 µM (active); with SK-MEL-5, < 0.0169 µM (active). Also, the GI50 in the experiment on 786-0 was 0.0124 µM (active); with COLO 205 it was 0.0984 µM (active); in the experiment with ACHN, < 0.01 µM (active); in the experiment with UO-31, < 0.0247 µM (active); in the experiment on NCI/ADR-RES it was < 0.0202 µM (active); with MOLT-4, < 0.01 µM (active). Also, the GI50 in the experiment on MDA-MB-435 was 0.0332 µM (active); in the experiment with EKVX, < 0.01 µM (active); in the experiment with RPMI-8226, < 0.018 µM (active); in the experiment on OVCAR-4, < 0.0106 µM (active); in the experiment on CAKI-1, < 0.0125 µM (active); in the experiment on UACC-257, 0.0702 µM (active). Further, the GI50 in the experiment on SR was < 0.015 µM (active); in the experiment with MCF7, < 0.0188 µM (active).
With `O=[N+]([O-])c1ccc2c(c1)nc(Cc1ccc(Cl)cc1)n2C[C@@H]1CCCN2CCCCC12` (stereo not given in full), the GI50 in the experiment on LOX IMVI was 13.7 µM (inactive); in the experiment with OVCAR-8, 15.1 µM (inactive); in the experiment with SK-MEL-2, 15.8 µM (inactive); in the experiment with HCC 2998, 7.64 µM (inactive); in the experiment on OVCAR-5, 15.5 µM (inactive); with SK-MEL-5 it was 14.8 µM (inactive). Further, the GI50 in the experiment with 786-0 was 11.8 µM (inactive); in the experiment with COLO 205, 10.4 µM (inactive); in the experiment on ACHN, 13.4 µM (inactive); in the experiment with UO-31, 1.58 µM (inactive); in the experiment on NCI/ADR-RES it was 13.9 µM (inactive); in the experiment with MOLT-4, 10.9 µM (inactive). Besides, the GI50 in the experiment on MDA-MB-435 is 14.3 µM (inactive); with EKVX, 8.39 µM (inactive); with RPMI-8226, 26.3 µM (inactive); in the experiment on OVCAR-4, 9.86 µM (inactive); in the experiment on CAKI-1, 15.2 µM (inactive); with UACC-257 it was 15.3 µM (inactive). Further, the GI50 in the experiment on SR is 22.7 µM (inactive); in the experiment on MCF7, 0.54 µM (active).
`CN(C)C(=O)Oc1ccc[n+](C)c1` [PYRIDOSTIGMINE BROMIDE]: the GI50 in the experiment on LOX IMVI, in the experiment with OVCAR-8, in the experiment with SK-MEL-2, with HCC 2998, with OVCAR-5 and in the experiment with SK-MEL-5 was > 100 µM (inactive) throughout. For the same compound, the GI50 in the experiment on 786-0, with COLO 205, in the experiment with ACHN, in the experiment on UO-31, in the experiment on NCI/ADR-RES and in the experiment on MOLT-4 was > 100 µM (inactive) throughout. Besides, the GI50 in the experiment on MDA-MB-435, in the experiment with EKVX, in the experiment with RPMI-8226, in the experiment on OVCAR-4, in the experiment on CAKI-1 and with UACC-257 was > 100 µM (inactive) throughout. Further, the GI50 is 8.28 µM (inactive) with SR and > 100 µM (inactive) with MCF7.
In the case of `COC(=O)C1(Cc2cccc(C)c2)Cc2c(C)cccc2C1=O` (stereo not given), the GI50 in the experiment on LOX IMVI was 50.1 µM (inactive); in the experiment with OVCAR-8, 80.7 µM (inactive); in the experiment on SK-MEL-2 it was 32.7 µM (inactive); in the experiment on HCC 2998, 55.5 µM (inactive); in the experiment with OVCAR-5, > 100 µM (inactive); with SK-MEL-5, 38.5 µM (inactive). Also, the GI50 was 93.8 µM (inactive) in the experiment with 786-0; 37.2 µM (inactive) with COLO 205; > 100 µM (inactive) with ACHN; 42.6 µM (inactive) with UO-31; 24 µM (inactive) in the experiment with NCI/ADR-RES; 36.8 µM (inactive) in the experiment with MOLT-4. In addition, the GI50 in the experiment with MDA-MB-435 was 14.1 µM (inactive); in the experiment with EKVX, 29.1 µM (inactive); with RPMI-8226, > 100 µM (inactive); in the experiment with OVCAR-4 it was 41.7 µM (inactive); in the experiment on CAKI-1, 64.9 µM (inactive); in the experiment on UACC-257, 82.8 µM (inactive). The GI50 was > 100 µM (inactive) with SR and 33.7 µM (inactive) in the experiment with MCF7.
Take `COc1ccc2c(c1)c1c3c(ccc4ncn2c43)N(CCO)CCN=1`: the GI50 with LOX IMVI was 0.151 µM (active); in the experiment on OVCAR-8 it was 0.0927 µM (active); in the experiment on SK-MEL-2, 0.175 µM (active); with HCC 2998, 0.147 µM (active); with OVCAR-5 it was 0.245 µM (active); in the experiment on SK-MEL-5, 0.188 µM (active). Besides, the GI50 in the experiment with 786-0 is 0.0736 µM (active); in the experiment on COLO 205 it was 0.101 µM (active); in the experiment with ACHN, 0.146 µM (active); in the experiment with UO-31 it was 0.104 µM (active); in the experiment on NCI/ADR-RES it was 0.334 µM (active); with MOLT-4 it was 0.026 µM (active). Besides, the GI50 in the experiment on MDA-MB-435 was 0.234 µM (active); in the experiment with EKVX it was 0.33 µM (active); in the experiment with RPMI-8226, 0.281 µM (active); in the experiment with OVCAR-4, 0.221 µM (active); in the experiment with CAKI-1, 0.247 µM (active); in the experiment with UACC-257, 0.391 µM (active). The GI50 in the experiment on SR is 0.0198 µM (active); in the experiment on MCF7, 0.189 µM (active).
For the compound `Cc1ccc(C)n1-n1c(Cc2ccccc2)n[nH]c1=O`, the GI50 in the experiment with LOX IMVI, with OVCAR-8, with SK-MEL-2, with HCC 2998, with OVCAR-5 and in the experiment on SK-MEL-5 was > 100 µM (inactive) in each case. Moreover, the GI50 is > 100 µM (inactive) with 786-0; 76.7 µM (inactive) in the experiment with COLO 205; > 100 µM (inactive) with ACHN; > 100 µM (inactive) with UO-31; > 100 µM (inactive) with NCI/ADR-RES; > 100 µM (inactive) with MOLT-4. Besides, the GI50 in the experiment on MDA-MB-435 was > 100 µM (inactive); in the experiment with EKVX, 61.7 µM (inactive); in the experiment on RPMI-8226, 91.2 µM (inactive); in the experiment with OVCAR-4, > 100 µM (inactive); in the experiment on CAKI-1, > 100 µM (inactive); with UACC-257 it was 46 µM (inactive). Moreover, the GI50 with SR and in the experiment on MCF7 was > 100 µM (inactive) throughout.
Take `O=C(O)[C@@H]1CCC(=O)N1C(c1ccc2c(c1)OCO2)c1ccc2c(c1)OCO2`: the GI50 in the experiment on LOX IMVI, with OVCAR-8, with SK-MEL-2, with HCC 2998, in the experiment on OVCAR-5 and with SK-MEL-5 was > 100 µM (inactive) throughout. Besides, the GI50 with 786-0, with COLO 205, in the experiment on ACHN, in the experiment with UO-31, in the experiment on NCI/ADR-RES and with MOLT-4 was > 100 µM (inactive) each time. Also, the GI50 is > 100 µM (inactive) in the experiment with MDA-MB-435; > 100 µM (inactive) in the experiment with EKVX; > 100 µM (inactive) in the experiment with RPMI-8226; 35.2 µM (inactive) in the experiment with OVCAR-4; > 100 µM (inactive) in the experiment with CAKI-1; > 100 µM (inactive) in the experiment with UACC-257. Besides, the GI50 in the experiment with SR and with MCF7 was > 100 µM (inactive) each time.
Consider `O=C1C=C/C(=N/c2cccc3c(/N=C4/C=CC(=O)O4)cccc23)O1`, for which the GI50 in the experiment with LOX IMVI is 27.8 µM (inactive); with OVCAR-8, 20 µM (inactive); in the experiment on SK-MEL-2 it was > 100 µM (inactive); in the experiment on HCC 2998, > 100 µM (inactive); in the experiment on OVCAR-5 it was 54.8 µM (inactive); in the experiment on SK-MEL-5 it was > 100 µM (inactive). Moreover, the GI50 in the experiment with 786-0 was 19.4 µM (inactive); with COLO 205 it was 20.2 µM (inactive); in the experiment on ACHN, 29 µM (inactive); in the experiment on UO-31, > 100 µM (inactive); in the experiment on NCI/ADR-RES, 95.7 µM (inactive); in the experiment with MOLT-4 it was 3.72 µM (inactive). Further, the GI50 in the experiment on MDA-MB-435 was 44.5 µM (inactive); in the experiment with EKVX it was 16.8 µM (inactive); in the experiment on RPMI-8226, 23.1 µM (inactive); in the experiment on OVCAR-4, 39.4 µM (inactive); in the experiment with CAKI-1 it was 18.9 µM (inactive); with UACC-257 it was 22.3 µM (inactive). Moreover, the GI50 in the experiment on SR is 19.8 µM (inactive); with MCF7 it was 33.3 µM (inactive).
Consider `Clc1cc(Cl)nc(Nc2ccc3c(c2)CCC3)n1`, for which the GI50 with LOX IMVI was 32.1 µM (inactive); with OVCAR-8, 72.3 µM (inactive); in the experiment with SK-MEL-2, 45 µM (inactive); with HCC 2998 it was 16.4 µM (inactive); in the experiment on OVCAR-5, 77.8 µM (inactive); in the experiment on SK-MEL-5, 23.8 µM (inactive). The GI50 in the experiment with 786-0 is 39.1 µM (inactive); with COLO 205, 24 µM (inactive); with ACHN, 35.1 µM (inactive); in the experiment with UO-31, 41.4 µM (inactive); with NCI/ADR-RES, 48 µM (inactive); in the experiment on MOLT-4, 13.8 µM (inactive). In addition, the GI50 was 58.5 µM (inactive) in the experiment with MDA-MB-435; 20 µM (inactive) with EKVX; 16.5 µM (inactive) with RPMI-8226; 61.2 µM (inactive) in the experiment with OVCAR-4; 28.2 µM (inactive) with CAKI-1; 42 µM (inactive) in the experiment with UACC-257. Besides, the values for the GI50 in the experiment with SR and with MCF7 were 30.3 µM (inactive) and 20.5 µM (inactive), respectively.
